The test system of data set [1] is Staphylococcus epidermidis. Briefly: Antibacterial activity against Staphylococcus epidermidis ATCC 12228 assessed as bacterial growth inhibition incubated for 24 hrs by CLSI based broth microdilution method. The format is functional.
Data set [2] is described as follows: Toxicity in fasted Sprague-Dawley rat assessed as mortality rate at 100 mg/kg, IG measured for 14 days. The format is organism-based. The note with it: in vivo, po, time 14 day.
The nature of data set [3]: Toxicity in fasted male Sprague-Dawley rat assessed as relative testis weight ratio at 148 mg/kg, IG measured for 14 days (reference value: 0.993 +/- 0.052). The format is organism-based. The conditions noted are these: in vivo, po, 336 h, time 14 day.
For data set [4], the system named is Escherichia coli. Description: Induction of cell damage in Escherichia coli ATCC 25922 assessed as decrease in intracellular ATP concentration at MIC incubated for 30 mins by fluorescence based analysis relative to control. The format is functional. Also on record: scale not given: the % may be the effect or the level left. The conditions noted are these: 0.5 h.

The nature of data set [5]: Toxicity in fasted female Sprague-Dawley rat assessed as relative kidney weight ratio at 331 mg/kg, IG measured for 14 days (reference value: 0.802 +/- 0.031). The class given is organism-based. The note with it: in vivo, po, 336 h, time 14 day.
Data set [6] in a line: Toxicity in fasted female Sprague-Dawley rat assessed as body weight at 500 mg/kg, IG measured after 7 days (reference value: 188.2 +/- 9.2 g). The format is organism-based. The note with it: in vivo, po, 168 h, time 7 day.
Data set [7] is described as follows: Toxicity in fasted female Sprague-Dawley rat assessed as animal growth rate at 148 mg/kg, IG measured for 14 days (reference value: 29.85 +/- 4.97 g). The format is organism-based. The conditions noted are these: in vivo, po, 336 h, time 14 day.
A short description of data set [8]: Toxicity in fasted female Sprague-Dawley rat assessed as body weight at 100 mg/kg, IG measured after 7 days (reference value: 188.2 +/- 9.2 g). The class given is organism-based. The note with it: in vivo, po, 168 h, time 7 day.
The test system of another data set is Staphylococcus aureus. Description: Antibacterial activity against methicillin-resistant Staphylococcus aureus 171 clinical isolate assessed as bacterial growth inhibition incubated for 24 hrs by CLSI based broth microdilution method. The format is functional. For orientation: Broth dilution looks for growth in wells or tubes with falling amounts of substance.

The subject of data set [9] is Escherichia coli. Description: Induction of cell damage in Escherichia coli ATCC 25922 assessed as intracellular pH at 2 times MIC incubated for 30 mins by fluorescence based analysis (reference value: 6.05 +/- 0.10). The format is functional. The conditions noted are these: 0.5 h.
Data set [10] can be described thus: Toxicity in fasted female Sprague-Dawley rat assessed as relative heart weight ratio at 500 mg/kg, IG measured for 14 days (reference value: 0.429 +/- 0.016). The class given is organism-based. The conditions noted are these: in vivo, po, 336 h, time 14 day.
Data set [11] can be described thus: Toxicity in fasted male Sprague-Dawley rat assessed as body weight at 148 mg/kg, IG measured after 7 days (reference value: 260.5 +/- 12.7 g). The format is organism-based. The conditions noted are these: in vivo, po, 168 h, time 7 day.

Consider one molecule from ChEMBL document CHEMBL5625206, “Design, synthesis, and evaluation of novel pleuromutilin aryl acrylate derivatives as promising broad-spectrum antibiotics especially for combatting multi-drug resistant gram-negative bacteria” (Eur J Med Chem, 2023).

The structures appear in SMILES notation. Values after ≈ are worked out from the molar mass of the structure shown.

As a reminder, the MIC is the lowest concentration that inhibits growth of the organism. By mortality is commonly meant the share of the test organisms that died. Take `C=C[C@]1(C)C[C@@H](OC(=O)COC(=O)/C=C/c2ccc(N(C)C)cc2)[C@]2(C)[C@H](C)CC[C@]3(CCC(=O)[C@H]32)[C@@H](C)[C@@H]1O`: the MIC is 1 µg/mL (≈ 1.81 µM) in data set [1] and 8 µg/mL (≈ 14.5 µM) with Staphylococcus aureus. Further, in data set [2], the mortality at 336 h amounted to 0%. Besides, the values for the Ratio in data set [3], in [5] and in data set [10] were 0.99, 0.832 and 0.449, respectively. The Activity in the data set with Escherichia coli [4] is reported as 50.75%; in data set [6] it was 181.3 g; in data set [7], 31.79%; in data set [8], 188.2 g; in data set [11], 256.8 g. Moreover, the pH in the data set on Escherichia coli [9] amounted to 3.23.
